US20080269241A1, “BICYCLIC AMINOPROPYL TETRAHYDRO-PYRAZOLO-PYRIDINE MODULATORS OF CATHEPSIN S” (priority 2007, published 2008)

Biological target: T1, human cathepsin S (CatS) (Homo sapiens, UniProt P25774)
T1 construct: made in house; host or cells: baculovirus system (insect cells)
Assay: Recombinant human cathepsin S (CatS) fluorogenic substrate inhibition assay
Type: biochemical
Details: recombinant human CatS, 10 μM Z-Valine-Valine-Arginine-AMC, pH 5.0; average of results obtained; read-out: CatS IC50
Protocol: Recombinant human cathepsin S (CatS) was expressed in the baculovirus system and purified in one step with a thiopropyl-sepharose column. […] The assay is run in 150 mM sodium acetate pH 5.0 containing 1.5 mM DTT and 150 mM NaCl. […] Measurements are taken every min for 20 min. The rate is calculated from the slope of the increase in fluorescence and the percent inhibition is calculated from this.

T1 sequence (P25774 115-331): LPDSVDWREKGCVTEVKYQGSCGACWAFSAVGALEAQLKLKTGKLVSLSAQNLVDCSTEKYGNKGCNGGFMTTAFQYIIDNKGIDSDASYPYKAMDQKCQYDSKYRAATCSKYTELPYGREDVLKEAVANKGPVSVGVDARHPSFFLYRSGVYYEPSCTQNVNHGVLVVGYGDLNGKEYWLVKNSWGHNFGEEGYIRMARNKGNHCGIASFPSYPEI

Row | SMILES | IC50 [nM]
1 | CS(=O)(=O)N1CCc2c(c(-c3ccc(C(F)(F)F)c(CNC(=O)Cn4cncn4)c3)nn2CCCN2CCC(N3CCCC3=O)CC2)C1 [Example 188, N-[5-(5-Methanesulfonyl-1-{3-[4-(2-oxo-pyrrolidin-1-yl)-piperidin-1-yl]-propyl}-4,5,6,7-tetrahydro-1H-pyrazolo[4,3-c]pyridin-3-yl)-2-trifluoromethyl-benzyl]-2-[1,2,4]triazol-1-yl-acetamide] | 590
2 | Cn1ccnc1C(=O)NCc1cc(-c2nn(CC(O)CN3CCC(N4CCCC4=O)CC3)c3c2CN(S(C)(=O)=O)CC3)ccc1C(F)(F)F (stereo not shown) [Example 190, 1-Methyl-1H-imidazole-2-carboxylic acid 5-(1-{2-hydroxy-3-[4-(2-oxo-pyrrolidin-1-yl)-piperidin-1-yl]-propyl}-5-methanesulfonyl-4,5,6,7-tetrahydro-1H pyrazolo[4,3-c]pyridin-3-yl)-2-trifluoromethyl-benzylamide] | 1700
3 | Cc1ccc(C(=O)Nc2cc(-c3nn(CCCN4CCN(c5cccc(Cl)c5)CC4)c4c3CN(S(C)(=O)=O)CC4)ccc2Cl)cc1 [Example 198, N-[2-Chloro-5-(1-{3-[4-(3-chloro-phenyl)-piperazin-1-yl]-propyl}-5-methanesulfonyl-4,5,6,7-tetrahydro-1H-pyrazolo[4,3-c]pyridin-3-yl)-phenyl]-4-methyl-benzamide] | 410
4 | CN(C)c1ccc(C(=O)Nc2cc(-c3nn(CCCN4CCN(c5cccc(Cl)c5)CC4)c4c3CN(S(C)(=O)=O)CC4)ccc2Cl)cc1 [Example 199, N-[2-Chloro-5-(1-{3-[4-(3-chloro-phenyl)-piperazin-1-yl]-propyl}-5-methanesulfonyl-4,5,6,7-tetrahydro-1H-pyrazolo[4,3-c]pyridin-3-yl)-phenyl]-4-dimethylamino-benzamide] | 470
5 | CS(=O)(=O)N1CCc2c(c(-c3ccc(Cl)c(NC(=O)c4ccc(Cl)cc4)c3)nn2CCCN2CCN(c3cccc(Cl)c3)CC2)C1 [Example 200, 4-Chloro-N-[2-chloro-5-(1-{3-[4-(3-chloro-phenyl)-piperazin-1-yl]-propyl}-5-methanesulfonyl-4,5,6,7-tetrahydro-1H-pyrazolo[4,3-c]pyridin-3-yl)-phenyl]-benzamide] | 600
6 | CS(=O)(=O)N1CCc2c(c(-c3ccc(Cl)c(NC(=O)c4ccc(C#N)cc4)c3)nn2CCCN2CCN(c3cccc(Cl)c3)CC2)C1 [Example 201, N-[2-Chloro-5-(1-{3-[4-(3-chloro-phenyl)-piperazin-1-yl]-propyl}-5-methanesulfonyl-4,5,6,7-tetrahydro-1H-pyrazolo[4,3-c]pyridin-3-yl)-phenyl]-4-cyano-benzamide] | 580
7 | CS(=O)(=O)N1CCc2c(c(-c3ccc(Cl)c(NS(=O)(=O)Cc4ccccc4)c3)nn2CCCN2CCN(c3cccc(Cl)c3)CC2)C1 [Example 202, N-[2-Chloro-5-(1-{3-[4-(3-chloro-phenyl)-piperazin-1-yl]-propyl}-5-methanesulfonyl-4,5,6,7-tetrahydro-1H-pyrazolo[4,3-c]pyridin-3-yl)-phenyl]-C-phenyl-methanesulfonamide] | 680
8 | CS(=O)(=O)N1CCc2c(c(-c3ccc(Cl)c(NS(=O)(=O)/C=C/c4ccccc4)c3)nn2CCCN2CCN(c3cccc(Cl)c3)CC2)C1 [Example 203, 2-Phenyl-ethenesulfonic acid [2-chloro-5-(1-{3-[4-(3-chloro-phenyl)-piperazin-1-yl]-propyl}-5-methanesulfonyl-4,5,6,7-tetrahydro-1H-pyrazolo[4,3-c]pyridin-3-yl)-phenyl]-amide] | 690
9 | CS(=O)(=O)N1CCc2c(c(-c3ccc(Cl)c(NS(=O)(=O)c4ccccc4)c3)nn2CCCN2CCN(c3cccc(Cl)c3)CC2)C1 [Example 204, N-[2-Chloro-5-(1-{3-[4-(3-chloro-phenyl)-piperazin-1-yl]-propyl}-5-methanesulfonyl-4,5,6,7-tetrahydro-1H-pyrazolo[4,3-c]pyridin-3-yl)-phenyl]-benzenesulfonamide] | 700
10 | CN(C)c1ccc2c(n1)n(C1CCN(CC(O)Cn3nc(-c4ccc(C(F)(F)F)c(CN)c4)c4c3CCN(S(C)(=O)=O)C4)CC1)c(=O)n2C (stereo not shown) [Example 216, 3-(1-{3-[3-(3-Aminomethyl-4-trifluoromethyl-phenyl)-5-methanesulfonyl-4,5,6,7-tetrahydro-pyrazolo[4,3-c]pyridin-1-yl]-2-hydroxy-propyl}-piperidin-4-yl)-5-dimethylamino-1-methyl-1,3-dihydro-imidazo[4,5-b]pyridin-2-one] | 600
11 | CS(=O)(=O)c1csc(C(=O)NCc2cc(-c3nn(CC(O)CN4CCC(N5CCCC5=O)CC4)c4c3CN(S(C)(=O)=O)CC4)ccc2C(F)(F)F)c1Cl (stereo not shown) [Example 217, 3-Chloro-4-methanesulfonyl-thiophene-2-carboxylic acid 5-(1-{2-hydroxy-3-[4-(2-oxo-pyrrolidin-1-yl)-piperidin-1-yl]-propyl}-5-methanesulfonyl-4,5,6,7-tetrahydro-1H-pyrazolo[4,3-c]pyridin-3-yl)-2-trifluoromethyl-benzylamide] | 600
12 | CC1CCCN(CC(=O)NCc2cc(-c3nn(CCCN4CCC(N5CCCC5=O)CC4)c4c3CN(S(C)(=O)=O)CC4)ccc2C(F)(F)F)C1 (stereo not shown) [Example 223, N-[5-(5-Methanesulfonyl-1-{3-[4-(2-oxo-pyrrolidin-1-yl)-piperidin-1-yl]-propyl}-4,5,6,7-tetrahydro-1H-pyrazolo[4,3-c]pyridin-3-yl)-2-trifluoromethyl-benzyl]-2-(3-methyl-piperidin-1-yl)-acetamide] | 700
13 | CS(=O)(=O)N1CCc2c(c(-c3ccc(Cl)c(NC(=O)c4ccc([N+](=O)[O-])cc4)c3)nn2CCCN2CCN(c3cccc(Cl)c3)CC2)C1 [Example 226, N-[2-Chloro-5-(1-{3-[4-(3-chloro-phenyl)-piperazin-1-yl]-propyl}-5-methanesulfonyl-4,5,6,7-tetrahydro-1H-pyrazolo[4,3-c]pyridin-3-yl)-phenyl]-4-nitro-benzamide] | 760
14 | COc1ccc(C(=O)Nc2cc(-c3nn(CCCN4CCN(c5cccc(Cl)c5)CC4)c4c3CN(S(C)(=O)=O)CC4)ccc2Cl)cc1 [Example 228, N-[2-Chloro-5-(1-{3-[4-(3-chloro-phenyl)-piperazin-1-yl]-propyl}-5-methanesulfonyl-4,5,6,7-tetrahydro-1H-pyrazolo[4,3-c]pyridin-3-yl)-phenyl]-4-methoxy-benzamide] | 760

Other lines, results leading:

Row | IC50 [nM] | SMILES
15 | 1800 | CS(=O)(=O)N1CCc2c(c(-c3ccc(C(F)(F)F)c(CNC(=O)CO)c3)nn2CCCN2CCC(N3CCCC3=O)CC2)C1 [Example 187, 2-Hydroxy-N-[5-(5-methanesulfonyl-1-{3-[4-(2-oxo-pyrrolidin-1-yl)-piperidin-1-yl]-propyl}-4,5,6,7-tetrahydro-1H-pyrazolo[4,3-c]pyridin-3-yl)-2-trifluoromethyl-benzyl]-acetamide]
16 | 510 | CS(=O)(=O)N1CCc2c(c(-c3ccc(C(F)(F)F)c(CNC(=O)Cc4ccncc4)c3)nn2CCCN2CCC(N3CCCC3=O)CC2)C1 [Example 189, N-[5-(5-Methanesulfonyl-1-{3-[4-(2-oxo-pyrrolidin-1-yl)-piperidin-1-yl]-propyl}-4,5,6,7-tetrahydro-1H-pyrazolo[4,3-c]pyridin-3-yl)-2-trifluoromethyl-benzyl]-2-pyridin-4-yl-acetamide]
17 | 2520 | CN(C)Cc1cc(-c2nn(CCCN3CCC(N4CCCC4=O)CC3)c3c2CN(S(C)(=O)=O)CC3)ccc1C(F)(F)F [Example 206, 1-(1-{3-[3-(3-Dimethylaminomethyl-4-trifluoromethyl-phenyl)-5-methanesulfonyl-4,5,6,7-tetrahydro-pyrazolo[4,3-c]pyridin-1-yl]-propyl}-piperidin-4-yl)-pyrrolidin-2-one]
18 | 2250 | CS(=O)(=O)N1CCc2c(c(-c3ccc(Cl)c(CNc4ccccc4)c3)nn2CCCN2CCC(N3CCCC3=O)CC2)C1 [Example 207, 1-(1-{3-[3-(4-Chloro-3-phenylaminomethyl-phenyl)-5-methanesulfonyl-4,5,6,7-tetrahydro-pyrazolo[4,3-c]pyridin-1-yl]-propyl}-piperidin-4-yl)-pyrrolidin-2-one]
19 | 280 | Cc1ccc(NCc2cc(-c3nn(CCCN4CCC(N5CCCC5=O)CC4)c4c3CN(S(C)(=O)=O)CC4)ccc2Cl)cc1 [Example 208, 1-[1-(3-{3-[4-Chloro-3-(p-tolylamino-methyl)-phenyl]-5-methanesulfonyl-4,5,6,7-tetrahydro-pyrazolo[4,3-c]pyridin-1-yl}-propyl)-piperidin-4-yl]-pyrrolidin-2-one]
20 | 660 | COc1ccc(NCc2cc(-c3nn(CCCN4CCC(N5CCCC5=O)CC4)c4c3CN(S(C)(=O)=O)CC4)ccc2Cl)cc1 [Example 209, 1-{1-[3-(3-{4-Chloro-3-[(4-methoxy-phenylamino)-methyl]-phenyl}-5-methanesulfonyl-4,5,6,7-tetrahydro-pyrazolo[4,3-c]pyridin-1-yl)-propyl]-piperidin-4-yl}-pyrrolidin-2-one]
21 | 630 | CS(=O)(=O)N1CCc2c(c(-c3ccc(Cl)c(CNc4cccc(-c5ccccc5)c4)c3)nn2CCCN2CCC(N3CCCC3=O)CC2)C1 [Example 210, 1-[1-(3-{3-[3-(Biphenyl-3-ylaminomethyl)-4-chloro-phenyl]-5-methanesulfonyl-4,5,6,7-tetrahydro-pyrazolo[4,3-c]pyridin-1-yl}-propyl)-piperidin-4-yl]-pyrrolidin-2-one]
22 | 370 | CC(C)c1cccc(NCc2cc(-c3nn(CCCN4CCC(N5CCCC5=O)CC4)c4c3CN(S(C)(=O)=O)CC4)ccc2Cl)c1 [Example 211, 1-{1-[3-(3-{4-Chloro-3-[(3-isopropyl-phenylamino)-methyl]-phenyl}-5-methanesulfonyl-4,5,6,7-tetrahydro-pyrazolo[4,3-c]pyridin-1-yl)-propyl]-piperidin-4-yl}-pyrrolidin-2-one]
